The supplement of paper PMC8960247
Structures can show the parent of a compound that is named as a salt. ± gives the standard error.

Experiments:
621-102 (TSC2-deficient) = assay: relative viability vs DMSO; higher = less cytotoxic; details: serum: 10% FBS, 72 h
621-103 (TSC2-rescued) = assay: as above; details: serum: 10% FBS, 72 h
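Also: immortalized renal angiomyolipoma cells stably carrying empty vector or TSC2, dosed in 384-well plates in DMEM, viability normalized to vehicle-treated wells within each plate.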

Row | Compound | relative viability (621-102 (TSC2-deficient); 0.0001 µM) [%] | relative viability (621-102 (TSC2-deficient); 0.001 µM) [%] | relative viability (621-102 (TSC2-deficient); 0.01 µM) [%] | relative viability (621-102 (TSC2-deficient); 0.1 µM) [%] | relative viability (621-102 (TSC2-deficient); 1 µM) [%] | relative viability (621-102 (TSC2-deficient); 10 µM) [%] | relative viability (621-103 (TSC2-rescued); 0.0001 µM) [%] | relative viability (621-103 (TSC2-rescued); 0.001 µM) [%] | relative viability (621-103 (TSC2-rescued); 0.01 µM) [%] | relative viability (621-103 (TSC2-rescued); 0.1 µM) [%] | relative viability (621-103 (TSC2-rescued); 1 µM) [%] | relative viability (621-103 (TSC2-rescued); 10 µM) [%]
1 | CO[C@H]1C[C@@H]2CC[C@@H](C)[C@@](O)(O2)C(=O)C(=O)N2CCCC[C@H]2C(=O)O[C@H]([C@H](C)C[C@@H]2CC[C@@H](O)[C@H](OC)C2)CC(=O)[C@H](C)/C=C(\C)[C@@H](O)[C@@H](OC)C(=O)[C@H](C)C[C@H](C)/C=C/C=C/C=C/1C [Rapamycin (Sirolimus)] | 37 ± 2.8 | 43.2 ± 5 | 38.8 ± 3.9 | 41.6 ± 2.9 | 44.6 ± 5.5 | 44.8 ± 2 | 80.829 ± 0.071 | 63.1 ± 2.6 | 70 ± 2.1 | 78.1 ± 1.8 | 71.36 ± 0.67 | 68.1 ± 2.8
2 | CC(NCCc1ccc(O)cc1)C(O)c1ccc(O)cc1 (stereo not given) [Ritodrine HCl] | 110 ± 1.6 | 112.1 ± 0.64 | 101 ± 2.7 | 100 ± 1.3 | 100 ± 1.4 | 102 ± 6.3 | 100 ± 5 | 98 ± 2.1 | 102 ± 2.8 | 98.2 ± 6.2 | 97.3 ± 6.2 | 86.5 ± 1.5
3 | CC(C)c1nc(CN(C)C(=O)N[C@H](C(=O)N[C@@H](Cc2ccccc2)C[C@H](O)[C@H](Cc2ccccc2)NC(=O)OCc2cncs2)C(C)C)cs1 [Ritonavir] | 106.1 ± 0.46 | 98.8 ± 4.8 | 105 ± 4.1 | 104 ± 1.4 | 100 ± 1.4 | 102 ± 2.6 | 99.5 ± 0.28 | 99.3 ± 1.5 | 98.8 ± 0.17 | 97.77 ± 0.48 | 97.6 ± 2.4 | 98.28 ± 0.37
4 | O=C(NC[C@H]1CN(c2ccc(N3CCOCC3=O)cc2)C(=O)O1)c1ccc(Cl)s1 [Rivaroxaban (Xarelto)] | 101 ± 5.5 | 104.4 ± 0.87 | 122.4 ± 0.29 | 117 ± 6.5 | 116 ± 1.6 | 120 ± 3.2 | 105 ± 2.4 | 116 ± 3.4 | 121 ± 1.5 | 117 ± 2.9 | 112 ± 1.1 | 104 ± 3.9
5 | CN(CCOc1ccc(CC2SC(=O)NC2=O)cc1)c1ccccn1 (stereo not given) [Rosiglitazone (Avandia)] | 112.8 ± 0.24 | 102 ± 8.2 | 99.4 ± 1 | 101 ± 3 | 102 ± 1.4 | 89.188 ± 0.073 | 97.1 ± 3.3 | 105 ± 2.9 | 102 ± 2.3 | 101 ± 3.8 | 105.9 ± 0.89 | 105 ± 1.4
6 | Cc1ccc(S(=O)(=O)OCC(=O)Nc2ccc(C(=O)O)c(O)c2)cc1 [S31-201] | 119.8 ± 0.59 | 125 ± 1.4 | 123 ± 3.5 | 121 ± 3.3 | 112 ± 1.6 | 119.2 ± 0.71 | 99.4 ± 2 | 98.17 ± 0.7 | 104 ± 2.1 | 102.7 ± 0.83 | 100 ± 1.8 | 101 ± 1.9
7 | COc1ccc([C@H]2CNC(=O)C2)cc1OC1CCCC1 [S-(+)-Rolipram] | 101 ± 4.1 | 102 ± 1.8 | 102 ± 3.9 | 101 ± 2.3 | 96.742 ± 0.089 | 103.39 ± 0.018 | 103 ± 5.1 | 100 ± 2 | 104 ± 3.3 | 104 ± 2.8 | 104 ± 3.2 | 106 ± 2.3
8 | CN1CCC(CNc2ccc3ncc(-c4cccc(OC(F)(F)F)c4)n3n2)CC1 [SGI-1776] | 93.93 ± 0.059 | 110 ± 1.1 | 98.6 ± 2.4 | 96.61 ± 0.13 | 86.6 ± 1.3 | 0.96 ± 0.17 | 94.08 ± 0.52 | 101 ± 1.6 | 101 ± 1.6 | 98.8 ± 2.8 | 82.6 ± 2 | 0.884 ± 0.13
9 | O=C(Nc1cccc(Cl)c1)Nc1ncc(CCNc2ncnc3ccsc23)s1 [SNS-314 Mesylate] | 107 ± 3 | 85.4 ± 1.4 | 83.06 ± 0.37 | 65.9 ± 0.75 | 79.5 ± 4.8 | 67.3 ± 1.1 | 102.7 ± 0.28 | 104 ± 1.1 | 98.4 ± 1.1 | 93.6 ± 1.6 | 89.5 ± 1.7 | 77.2 ± 2.1
10 | CN1[C@@H]2C[C@@H](OC(=O)[C@H](CO)c3ccccc3)C[C@H]1[C@@H]1O[C@@H]12 [Scopolamine hydrobromide] | 127 ± 2.7 | 119 ± 5.9 | 120 ± 2.6 | 112 ± 1.9 | 115.3 ± 1.1 | 108 ± 3.8 | 102 ± 4 | 99.3 ± 2 | 96.3 ± 2.5 | 99.3 ± 1.4 | 100 ± 2.1 | 102 ± 1.5
11 | Cc1ncc([N+](=O)[O-])n1CC(C)O (stereo not given) [Secnidazole] | 108.6 ± 0.66 | 118.1 ± 0.34 | 108 ± 3.4 | 101 ± 3.9 | 102.2 ± 0.53 | 111 ± 3 | 101 ± 2.1 | 105 ± 3.6 | 105 ± 4.5 | 105.2 ± 0.64 | 100 ± 4.3 | 93.6 ± 4.8
12 | C#CCN(C)[C@H](C)Cc1ccccc1 [Selegiline HCl] | 81.4 ± 7.3 | 80.4 ± 9.2 | 91.8 ± 7.5 | 102 ± 1.1 | 95.7 ± 3 | 88.1 ± 1.8 | 95.9 ± 3.1 | 92.55 ± 0.61 | 100 ± 1.2 | 109 ± 2.5 | 102 ± 3.7 | 79.5 ± 0.86
13 | CC(C)[C@H](O)C(=O)N[C@@H](C)C(=O)N[C@@H]1C(=O)N(C)CCc2ccccc21 [Semagacestat] | 117 ± 2.5 | 118 ± 4.2 | 121.4 ± 0.8 | 117 ± 2 | 118 ± 1.6 | 116 ± 2.2 | 102 ± 2.3 | 98.71 ± 0.85 | 101 ± 1.2 | 102.5 ± 0.4 | 102 ± 1.2 | 103 ± 1.7
14 | N[C@@H](CC(=O)N1CCn2c(nnc2C(F)(F)F)C1)Cc1cc(F)c(F)cc1F [Sitagliptin phosphate] | 98.7 ± 0.22 | 104.4 ± 0.16 | 103 ± 2.5 | 94 ± 4.4 | 96.2 ± 1.3 | 91.46 ± 0.51 | 97.02 ± 0.71 | 97.6 ± 1.3 | 98.68 ± 0.34 | 100 ± 2 | 98.8 ± 2.4 | 101 ± 0.53
15 | CNC(=O)c1cc(Oc2ccc(NC(=O)Nc3ccc(Cl)c(C(F)(F)F)c3)cc2)ccn1 [Sorafenib Tosylate] | 90.38 ± 0.54 | 99.7 ± 5.4 | 113 ± 6.4 | 110.1 ± 0.44 | 127 ± 1.7 | 82.2 ± 13 | 97.89 ± 0.32 | 102 ± 2 | 106 ± 1.2 | 102 ± 1.9 | 102 ± 1.6 | 44.5 ± 3.4
